ChEMBL document CHEMBL1201862, “PubChem BioAssay data set” (2004)
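All cell lines were grown in 96-well plates and treated with compound for 48 hours. Here, GI50 denotes the concentration required for 50% inhibition of growth.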 The source made the active and inactive calls. No stated cut-off is given here; in the data, active = GI50 up to about 1.1 µM and inactive = higher. *1 amine or outer side, *2 acyl side, *3 side chain or, on linkers, in order; H or OH if unused. Where a SMILES comes first, the peptide text is derived from it. Bridges are numbered along the chain shown (N, C = ends). Roman numbers before positions name the chains, in order. [ ]: non-standard residue; d: D form. Actinocin(9to1) = Cc1c2oc3c(C)ccc(C(=O)[*:1])c3nc-2c(C(=O)[*:2])c(N)c1=O; NMeV = CN[CH](C(=O)O)C(C)C; Sar = CNCC(=O)O

What was measured:
Assay in all cases: growth of human tumour cells (NCI), 48 h
A498 = tested on: A498
ACHN = tested on: ACHN
BT-549 = tested on: BT-549
DU-145 = tested on: DU-145
HCC 2998 = tested on: HCC 2998
HCT-15 = tested on: HCT-15
HT-29 = tested on: HT-29
IGROV-1 = tested on: IGROV-1
MDA-MB-231 = tested on: MDA-MB-231
NCI-H226 = tested on: NCI-H226
NCI-H460 = tested on: NCI-H460
OVCAR-4 = tested on: OVCAR-4
OVCAR-8 = tested on: OVCAR-8
RXF 393 = tested on: RXF 393
SK-MEL-28 = tested on: SK-MEL-28
SK-MEL-5 = tested on: SK-MEL-5
SN12C = tested on: SN12C
SR = tested on: SR
TK-10 = tested on: TK-10
UACC-62 = tested on: UACC-62

Structure (SMILES) | GI50 (A498) | GI50 (ACHN) | GI50 (BT-549) | GI50 (DU-145) | GI50 (HCC 2998) | GI50 (HCT-15) | GI50 (HT-29) | GI50 (IGROV-1) | GI50 (MDA-MB-231) | GI50 (NCI-H226) | GI50 (NCI-H460) | GI50 (OVCAR-4) | GI50 (OVCAR-8) | GI50 (RXF 393) | GI50 (SK-MEL-28) | GI50 (SK-MEL-5) | GI50 (SN12C) | GI50 (SR) | GI50 (TK-10) | GI50 (UACC-62)
CCCCCCCCCCCCCCCC(=O)Nc1ccn(C2OC(CO)C(O)C2O)c(=O)n1 (stereo not given) | 22.1 µM (inactive) | 3.08 µM (inactive) | 33.7 µM (inactive) | 3.38 µM (inactive) | 25.1 µM (inactive) | 17.7 µM | 25.7 µM (inactive) | 35.6 µM (inactive) | > 62.8 µM (inactive) | 30.5 µM (inactive) | 0.78 µM (active) | > 100 µM (inactive) | 6.55 µM (inactive) | 24.6 µM (inactive) | 41.9 µM (inactive) | 29.9 µM (inactive) | 31 µM (inactive) | 0.6 µM (active) | > 100 µM (inactive) | 24.2 µM (inactive)
O=C1c2ccccc2-n2c1nc1ccccc1c2=O [TRYPTANTHRIN] | 18.2 µM (inactive) | 2 µM (inactive) | 14.6 µM (inactive) | 10.7 µM (inactive) | 29.4 µM (inactive) | 3.6 µM | 14.8 µM (inactive) | 23 µM (inactive) | 16.7 µM (inactive) | 30.9 µM (inactive) | 1.44 µM (inactive) | 19.1 µM (inactive) | 5.79 µM (inactive) | 28.1 µM (inactive) | 15.8 µM (inactive) | 13.1 µM (inactive) | 12.6 µM (inactive) | 8.47 µM (inactive) | > 43.3 µM (inactive) | 3.69 µM (inactive)
N=C(N)NCCCCCCC(=O)NC(O)C(=O)NCCCCNCCCN (stereo not given) | > 750 µM (inactive) | > 750 µM (inactive) | 372 µM (inactive) | > 750 µM (inactive) | > 562 µM (inactive) | 656 µM | > 750 µM (inactive) | 665 µM (inactive) | > 750 µM (inactive) | 687 µM (inactive) | 718 µM (inactive) | 550 µM (inactive) | 641 µM (inactive) | 700 µM (inactive) | > 750 µM (inactive) | > 750 µM (inactive) | > 750 µM (inactive) | 1280 µM (inactive) | > 750 µM (inactive) | 711 µM (inactive)
CC12CC(Br)(Br)C(=O)C3C1CCCC32 | 16.8 µM (inactive) | 5.27 µM (inactive) | 2.09 µM (inactive) | 12.4 µM (inactive) | 6.89 µM (inactive) | 3.61 µM | 5.47 µM (inactive) | 10.1 µM (inactive) | 3.24 µM (inactive) | 11.3 µM (inactive) | 14.9 µM (inactive) | 4.48 µM (inactive) | 4.07 µM (inactive) | 2.11 µM (inactive) | 2.9 µM (inactive) | 5.55 µM (inactive) | 4.57 µM (inactive) | 4.43 µM (inactive) | 6.27 µM (inactive) | 7.13 µM (inactive)
CC(C)=CCC[C@@H](C)[C@H]1CC[C@@]2(C)[C@@H]3CC[C@H]4C(C)(C)[C@@H](O)CC[C@@]45C[C@@]35CC[C@]12C [CYCLOARTENOL] | 41.2 µM (inactive) | 31.5 µM (inactive) | 21.1 µM (inactive) | 59.7 µM (inactive) | > 31.6 µM (inactive) | > 100 µM | > 100 µM (inactive) | 16.1 µM (inactive) | > 44.9 µM (inactive) | 26.5 µM (inactive) | 17.8 µM (inactive) | > 100 µM (inactive) | 16.9 µM (inactive) | 18 µM (inactive) | 39.4 µM (inactive) | > 44.4 µM (inactive) | 20 µM (inactive) | 24.3 µM (inactive) | > 100 µM (inactive) | 44.4 µM (inactive)
O=C1c2cccc3cc4ccccc4c(c23)C(=O)N1CCCNCCNCCCN1C(=O)c2cccc3cc4ccccc4c(c23)C1=O | 0.526 µM (active) | < 0.0227 µM (active) | 1.24 µM (inactive) | 0.475 µM (active) | 0.0964 µM (active) | 0.103 µM | 0.0104 µM (active) | 0.0139 µM (active) | 0.189 µM (active) | 0.411 µM (active) | < 0.01 µM (active) | 0.129 µM (active) | 0.0107 µM (active) | 0.179 µM (active) | 0.239 µM (active) | 0.128 µM (active) | < 0.01 µM (active) | < 0.01 µM (active) | 1 µM (active) | 0.0575 µM (active)
O=c1ssc(Cl)c1Cl | > 10 µM (inactive) | > 7.26 µM (inactive) | > 10 µM (inactive) | > 10 µM (inactive) | > 10 µM (inactive) | > 10 µM | > 10 µM (inactive) | > 10 µM (inactive) | > 10 µM (inactive) | > 10 µM (inactive) | > 10 µM (inactive) | > 5.6 µM (inactive) | > 10 µM (inactive) | > 10 µM (inactive) | > 10 µM (inactive) | > 10 µM (inactive) | > 10 µM (inactive) | > 10 µM (inactive) | > 10 µM (inactive) | > 10 µM (inactive)
COc1ccc2c(c1OC)C(Br)CCC(Br)(Br)C2=O (stereo not given) | 16 µM (inactive) | 1.94 µM (inactive) | 7.87 µM (inactive) | 12.4 µM (inactive) | 11.6 µM (inactive) | 5.57 µM | 4.43 µM (inactive) | 5.83 µM (inactive) | 16.3 µM (inactive) | 14 µM (inactive) | 16 µM (inactive) | 6 µM (inactive) | 7.45 µM (inactive) | 3.91 µM (inactive) | 13.1 µM (inactive) | 2.47 µM (inactive) | 4.83 µM (inactive) | 1.27 µM (inactive) | 6.79 µM (inactive) | 14.6 µM (inactive)
Fc1cc2nc3n(c2cc1F)C(c1c(Cl)cccc1Cl)SC3 (stereo not given) | 20.1 µM (inactive) | 17.5 µM (inactive) | 21.8 µM (inactive) | 17.5 µM (inactive) | 15.8 µM (inactive) | 17.5 µM | 16.2 µM (inactive) | 18.5 µM (inactive) | 18.8 µM (inactive) | 24.7 µM (inactive) | 13.7 µM (inactive) | 15.9 µM (inactive) | 16 µM (inactive) | 14.9 µM (inactive) | 14 µM (inactive) | 7.82 µM (inactive) | 16.3 µM (inactive) | 4.51 µM (inactive) | 18.2 µM (inactive) | 12.6 µM (inactive)
CCOC(=O)Nc1cc2ccccc2c(/N=N/c2ccccc2)c1O | > 100 µM (inactive) | > 100 µM (inactive) | > 100 µM (inactive) | > 100 µM (inactive) | > 100 µM (inactive) | > 100 µM | > 100 µM (inactive) | 59.7 µM (inactive) | > 100 µM (inactive) | > 100 µM (inactive) | > 100 µM (inactive) | 20.2 µM (inactive) | 37.2 µM (inactive) | 20.7 µM (inactive) | > 100 µM (inactive) | > 100 µM (inactive) | > 100 µM (inactive) | > 100 µM (inactive) | > 100 µM (inactive) | > 100 µM (inactive)
CCOC(C/N=c1/nc(N(C)C)ss1)OCC | > 82.8 µM (inactive) | 26.2 µM (inactive) | 23.4 µM (inactive) | > 71.1 µM (inactive) | > 77.4 µM (inactive) | 25.8 µM | 0.135 µM (active) | > 27.5 µM (inactive) | 15.5 µM (inactive) | 24.6 µM (inactive) | 4.31 µM (inactive) | 16.6 µM (inactive) | 28.1 µM (inactive) | 19 µM (inactive) | 21.5 µM (inactive) | 0.832 µM (active) | 19.2 µM (inactive) | 1.48 µM (inactive) | 33.3 µM (inactive) | 1.17 µM (inactive)
COc1cc(CNCc2cc(OC)c(OC)c(OC)c2)cc(OC)c1OC | > 10 µM (inactive) | > 10 µM (inactive) | > 10 µM (inactive) | > 10 µM (inactive) | > 10 µM (inactive) | > 10 µM | > 10 µM (inactive) | > 10 µM (inactive) | > 10 µM (inactive) | > 10 µM (inactive) | > 10 µM (inactive) | > 10 µM (inactive) | > 10 µM (inactive) | > 10 µM (inactive) | > 10 µM (inactive) | > 10 µM (inactive) | > 10 µM (inactive) | > 5.38 µM (inactive) | > 10 µM (inactive) | > 10 µM (inactive)
Cc1c2oc3c(C)ccc(C(=O)NC4C(=O)NC(C(C)C)C(=O)N5CCCC5C(=O)N(C)CC(=O)N(C)C(C(C)C)C(=O)OC4C)c3nc-2c(C(=O)NC2C(=O)NC(C(C)C)C(=O)N3CCCC3C(=O)N(C)CC(=O)N(C)C(C(C)C)C(=O)OC2C)c(N)c1=O (stereo not given) (I: TVP[Sar][NMeV] / II: TVP[Sar][NMeV]; ester I:1-I:C, II:1-II:C; linker I:N-II:N via Actinocin(9to1); configuration not given here) | 0.00169 µM (active) | 0.000213 µM (active) | 0.0025 µM (active) | 0.000359 µM (active) | 0.00684 µM (active) | 0.0123 µM | < 0.0001 µM (active) | 0.00011 µM (active) | 0.00494 µM (active) | 0.000891 µM (active) | < 0.0001 µM (active) | 0.000445 µM (active) | 0.000212 µM (active) | 0.00136 µM (active) | 0.000764 µM (active) | 0.000351 µM (active) | 0.00011 µM (active) | < 0.0001 µM (active) | 0.0101 µM (active) | < 0.0001 µM (active)
COc1cc(/C=C2\CCC/C(=C\c3cc(OC)c(O)c(OC)c3)C2=O)cc(OC)c1O | 1.41 µM (inactive) | 1.22 µM (inactive) | 1.53 µM (inactive) | 2.39 µM (inactive) | 1.35 µM (inactive) | 1.52 µM | 12.9 µM (inactive) | 1.22 µM (inactive) | 2.71 µM (inactive) | 10.4 µM (inactive) | 2.22 µM (inactive) | 3.16 µM (inactive) | 1.98 µM (inactive) | 1.43 µM (inactive) | 2.69 µM (inactive) | 2.28 µM (inactive) | 2.32 µM (inactive) | 3.8 µM (inactive) | 5.33 µM (inactive) | 1.38 µM (inactive)
